Measured values taken from ChEMBL document CHEMBL5724914, “Linking interpersonal differences in gut microbiota composition and drug biotransformation activity” (2024).

Experiments:
[1] = human gut metagenome, 24 h, 2 µM
[2] = (§1) The drug is tested on Z-013 corresponding to rabbit gut metagenome with ENA study accession number: PRJEB37062 and ENA sample accession number: ERS12561813 for biotransformation under anaerobic condition. The drug concentrations were measured over 9 timepoints collected between 0 and 24 hours of incubation by liquid-chromatography-coupled mass spectrometry (LC–MS); details: 2 µM
[3] = human gut metagenome, 24 h, 2 µM; remark: listed apart in the source
[4] = as §1, with “WLS-240” for “Z-013”, “human” for “rabbit”, “ERS12561773” for “ERS12561813”; details: 2 µM
[5] = as §1, with “Z-011” for “Z-013”, “mouse” for “rabbit”, “ERS12561811” for “ERS12561813”; details: 2 µM
[6] = as §1, with “Z-023” for “Z-013”, “to” for “to rabbit gut”, “ERS12561822” for “ERS12561813”; details: 2 µM
[7] = as §1, with “Z-028” for “Z-013”, “mouse” for “rabbit”, “ERS12561827” for “ERS12561813”; details: 2 µM
[8] = as §1, with “WLS-077” for “Z-013”, “human” for “rabbit”, “ERS12561750” for “ERS12561813”; details: 2 µM
[9] = as §1, with “WLS-350” for “Z-013”, “human” for “rabbit”, “ERS12561789” for “ERS12561813”; details: 2 µM
[10] = human gut metagenome, 24 h, 2 µM; remark: listed apart in the source
[11] = as §1, with “Z-018” for “Z-013”, “pig” for “rabbit”, “ERS12561817” for “ERS12561813”; details: 2 µM
[12] = as §1, with “Z-006” for “Z-013”, “mouse” for “rabbit”, “ERS12561806” for “ERS12561813”; details: 2 µM
[13] = human gut metagenome, 24 h, 2 µM; remark: listed apart in the source
[14] = as §1, with “Z-001” for “Z-013”, “mouse” for “rabbit”, “ERS12561801” for “ERS12561813”; details: 2 µM
[15] = as §1, with “Z-010” for “Z-013”, “to” for “to rabbit gut”, “ERS12561810” for “ERS12561813”; details: 2 µM
[16] = human gut metagenome, 24 h, 2 µM; remark: listed apart in the source
[17] = as §1, with “Z-008” for “Z-013”, “to” for “to rabbit gut”, “ERS12561808” for “ERS12561813”; details: 2 µM
[18] = human gut metagenome, 24 h, 2 µM; remark: listed apart in the source
[19] = as §1, with “WLS-039” for “Z-013”, “human” for “rabbit”, “ERS12561746” for “ERS12561813”; details: 2 µM
[20] = human gut metagenome, 24 h, 2 µM; remark: listed apart in the source
Further: call rule not given here.

Row | SMILES | Bacterial Biotransformation [1] | Bacterial Biotransformation [2] | Bacterial Biotransformation [3] | Bacterial Biotransformation [4] | Bacterial Biotransformation [5] | Bacterial Biotransformation [6] | Bacterial Biotransformation [7] | Bacterial Biotransformation [8] | Bacterial Biotransformation [9] | Bacterial Biotransformation [10] | Bacterial Biotransformation [11] | Bacterial Biotransformation [12] | Bacterial Biotransformation [13] | Bacterial Biotransformation [14] | Bacterial Biotransformation [15] | Bacterial Biotransformation [16] | Bacterial Biotransformation [17] | Bacterial Biotransformation [18] | Bacterial Biotransformation [19] | Bacterial Biotransformation [20]
1 | CN1CCC[C@@H]1CCO[C@](C)(c1ccccc1)c1ccc(Cl)cc1.O=C(O)/C=C/C(=O)O [CLEMASTINE FUMARATE] | Compound metabolized | Compound NOT metabolized | Compound metabolized | Compound NOT metabolized | Compound NOT metabolized | Compound NOT metabolized | Compound NOT metabolized | Compound NOT metabolized | Compound metabolized | Compound metabolized | Compound NOT metabolized | Compound NOT metabolized | Compound NOT metabolized | Compound NOT metabolized | Compound NOT metabolized | Compound NOT metabolized | Compound NOT metabolized | Compound NOT metabolized | Compound metabolized | Compound metabolized
2 | CC(C)(C)NCC(O)c1cc(Cl)c(N)c(Cl)c1 (stereo not given) [CLENBUTEROL] | Compound NOT metabolized | Compound NOT metabolized | Compound NOT metabolized | Compound NOT metabolized | Compound NOT metabolized | Compound NOT metabolized | Compound NOT metabolized | Compound NOT metabolized | Compound NOT metabolized | Compound NOT metabolized | Compound NOT metabolized | Compound NOT metabolized | Compound NOT metabolized | Compound NOT metabolized | Compound NOT metabolized | Compound NOT metabolized | Compound NOT metabolized | Compound NOT metabolized | Compound NOT metabolized | Compound NOT metabolized
3 | C[N+]12CCC(CC1)C(OC(=O)C(O)(c1ccccc1)c1ccccc1)C2.[Br-] (stereo not given) [CLIDINIUM BROMIDE] | Compound NOT metabolized | Compound NOT metabolized | Compound metabolized | Compound metabolized | Compound NOT metabolized | Compound metabolized | Compound NOT metabolized | Compound NOT metabolized | Compound metabolized | Compound metabolized | Compound metabolized | Compound NOT metabolized | Compound metabolized | Compound metabolized | Compound metabolized | Compound NOT metabolized | Compound NOT metabolized | Compound NOT metabolized | Compound metabolized | Compound metabolized
4 | Clc1cccc(Cl)c1N=C1NCCN1 [CLONIDINE] | Compound NOT metabolized | Compound NOT metabolized | Compound metabolized | Compound metabolized | Compound metabolized | Compound NOT metabolized | Compound NOT metabolized | Compound NOT metabolized | Compound NOT metabolized | Compound metabolized | Compound metabolized | Compound NOT metabolized | Compound NOT metabolized | Compound metabolized | Compound metabolized | Compound NOT metabolized | Compound NOT metabolized | Compound NOT metabolized | Compound NOT metabolized | Compound metabolized
5 | COC(=O)[C@H](c1ccccc1Cl)N1CCc2sccc2C1.O=S(=O)(O)O [CLOPIDOGREL BISULFATE] | Compound metabolized | Compound metabolized | Compound metabolized | Compound metabolized | Compound metabolized | Compound metabolized | Compound NOT metabolized | Compound metabolized | Compound metabolized | Compound metabolized | Compound metabolized | Compound metabolized | Compound metabolized | Compound metabolized | Compound metabolized | Compound metabolized | Compound metabolized | Compound metabolized | Compound NOT metabolized | Compound metabolized
6 | O=P1(N(CCCl)CCCl)NCCCO1 (stereo not given) [CYCLOPHOSPHAMIDE ANHYDROUS] | Compound NOT metabolized | Compound NOT metabolized | Compound metabolized | Compound metabolized | Compound NOT metabolized | Compound NOT metabolized | Compound NOT metabolized | Compound NOT metabolized | Compound NOT metabolized | Compound metabolized | Compound NOT metabolized | Compound NOT metabolized | Compound NOT metabolized | Compound NOT metabolized | Compound NOT metabolized | Compound NOT metabolized | Compound NOT metabolized | Compound NOT metabolized | Compound NOT metabolized | Compound metabolized
7 | Br.COc1ccc2c(c1)[C@]13CCCC[C@@H]1[C@H](C2)N(C)CC3.O [DEXTROMETHORPHAN HYDROBROMIDE] | Compound NOT metabolized | Compound NOT metabolized | Compound metabolized | Compound metabolized | Compound NOT metabolized | Compound metabolized | Compound NOT metabolized | Compound metabolized | Compound metabolized | Compound metabolized | Compound metabolized | Compound NOT metabolized | Compound metabolized | Compound NOT metabolized | Compound metabolized | Compound NOT metabolized | Compound NOT metabolized | Compound metabolized | Compound NOT metabolized | Compound metabolized
8 | CC(=O)Nc1ccc(OC(C)=O)cc1 [DIACETAMATE] | Compound metabolized | Compound metabolized | Compound metabolized | Compound metabolized | Compound metabolized | Compound metabolized | Compound metabolized | Compound metabolized | Compound metabolized | Compound metabolized | Compound metabolized | Compound metabolized | Compound metabolized | Compound metabolized | Compound metabolized | Compound metabolized | Compound metabolized | Compound metabolized | Compound metabolized | Compound metabolized
